# Assay results as given in US12318434B2, “Alkaline phosphate-based oncology treatments” (Theriva Biologics, Inc., priority 2019, dated 2025).
# Entries after “also recorded” stand apart in the source; their conditions may differ.
# B1: SYN BIAPII: intestinal alkaline phosphatase; BIAP II with stop codon and no leader sequence (SYN-020) (SEQ ID NO: 41) (protein)
# chain: LIPAEEENPAFWNRQAAQALDVAKKLQPIQTAAKNVILFLGDGMGVPTVTATRILKGQMNGKLGPETPLAMDQFPYVALSKTYNVDRQVPDSAGTATAYLCGVKGNYRTIGVSAAARYNQCNTTRGNEVTSVINRAKKAGKAVGVVTTTRVQHASPAGAYAHTVNRNWYSDADLPADAQKNGCQDIAAQLVYNMDIDVILGGGRMYMFPEGTPDPEYPDDASVNGVRKDKQNLVQEWQAKHQGAQYVWNRTALLQAADDSSVTHLMGLFEPADMKYNVQQDHTKDPTLAEMTEAALQVLSRNPRGFYLFVEGGRIDHGHHDGKAYMALTEAIMFDNAIAKANELTSELDTLILVTADHSHVFSFGGYTLRGTSIFGLAPGKALDSKSYTSILYGNGPGYALGGGSRPDVNGSTSEEPSYRQQAAVPLASETHGGEDVAVFARGPQAHLVHGVQEETFVAHIMAFAGCVEPYTDCNLPAPATATSIPD
# modifications: Synthetic polymer.
# Assays:
# [1] = test system: BALB/c mice inoculated with CT26 murine colorectal cancer cells; test: First set of experiments: stool consistency and weight change after 5-FU with or without IAP; type: in vivo
# Text: (§1) The study conducted included evaluation of the effects of administration of an IAP (“SYN-020” is synonymous with IAP and SYN BIAPII) along with a chemotherapeutic treatment with 5-fluorouracil (5-FU) in a murine model. […] Stool consistency was scored as the following: Score 0=Normal (no diarrhea); Score 2=Loose, formed stools; and Score 4=Diarrhea.
# The first set of experiments included three groups of BALB/c mice inoculated with CT26 murine colorectal cancer cells into the right flank: (1) a no-treatment control group of 18 male mice (“untreated”); (2) a group of 18 male mice (“vehicle+5-FU”) that received an intraperitoneal (IP) QD (once daily) dose of 30 mg/kg of 5-FU for 5 consecutive days (days 0-4) and a vehicle was administered PO (orally) BID (twice a day) throughout the study (days −3 to +26); and (3) a group of 18 male mice (“SYN BIAPII+5-FU”) that received an IP QD dose of 30 mg/kg of 5-FU for 5 consecutive days (days 0-4) and an IAP (SYN-020) in a dose of 0.5 mg/kg, administered PO BID throughout the study (days −3 to +26).
# [2] = test system: BALB/c mice inoculated with CT26 murine colorectal cancer cells; test: Second set of experiments: mean daily body weight change after 5-FU with or without IAP; type: in vivo; conditions: 5-FU 30 mg/kg IP QD days 0-4
# Protocol: (§2) The second set of experiments included four groups of BALB/c mice inoculated with CT26 murine colorectal cancer cells into the right flank: (1) a vehicle control group of 30 male mice (“vehicle”); (2) a group of 30 male mice that received a daily treatment dose of 100 U/dose, 0.5 mg/kg of SYN BIAP II alone (“SYN BIAP II”); (3) a group of 30 male mice (“vehicle+5-FU”) that received an IP QD dose of 30 mg/kg of 5-FU for 5 consecutive days (days 0-4) and vehicle treatment; and (4) a group of 30 male mice (“SYN BIAPII+5-FU”) that received an IP QD dose of 30 mg/kg of 5-FU for 5 consecutive days (days 0-4) and an IAP (SYN-020) in a dose of 100 U/dose, 0.5 mg/kg, administered PO BID throughout the study (days −3 to +26).
# Cumulative differences in body weight change between treatment groups through 50% common group survival (Day (−3)-16) were assessed by calculating the area under the curve (AUC) for each animal using the trapezoidal transformation.
# [3] = test system: BALB/c mice inoculated with CT26 murine colorectal cancer cells; conditions: for Duration of Diarrhea (score = 4): Days < 4: animal-days with stool score < 4; for Duration of Diarrhea (score = 4): Days = 4: animal-days with stool score = 4 (diarrhea); for Duration of Diarrhea (score = 4): % Days = 4: percentage of total animal-days with diarrhea (score=4)
# Text: as §1, §2
# Arrows indicate 5-FU administration days. […] The statistical significance of group differences in daily stool scores was assessed on each day by Mann-Whitney rank-sum analysis.
# Table 1 below compares the duration of 5-FU-induced diarrhea by calculating the percentage of total animal-days with diarrhea (score=4). Groups were compared by chi-square test.
# [4] = 5-FU 30 mg/kg IP QD days 0-4, vehicle or SYN-020 0.5 mg/kg PO BID days -3 to +26
Molecule,"effect of 5-FU administration on stools and weight ([1]; 5-FU 30 mg/kg IP QD days 0-4, all of the treated animals)","day by which loose stools/diarrhea and associated weight loss recovered [1, 4] [days]","day on which loose stools/diarrhea and associated weight loss peaked [1, 4] [days]",day by which animals regained lost weight [2] [days],day on which chemotherapy-induced weight loss peaked [2] [days],chemotherapy-induced weight loss at peak (percent change compared to body weight at Day 0) ([2]; Day 7) [%],day by which incidence of loose stools generally resolved ([3]; 5-FU 30 mg/kg IP QD days 0-4) [days],day on which incidence of loose stools or diarrhea was first observed ([3]; 5-FU 30 mg/kg IP QD days 0-4) [days],Duration of Diarrhea (score = 4): Days < 4 [3],Duration of Diarrhea (score = 4): Days = 4 [3],"animal-days with diarrhea compared to untreated animals ([3]; mouse, in vivo)",Duration of Diarrhea (score = 4): % Days = 4 [3] [%],"recovery from the loose stools/diarrhea symptoms and associated weight loss ([1]; SYN-020 0.5 mg/kg PO BID plus 5-FU, compared with vehicle+5-FU, p<0.03)","stool consistency throughout the course of the analysis ([3]; mouse, in vivo, 0.5 mg/kg)"
"O=c1[nH]cc(F)c(=O)[nH]1 [vehicle + 5-FU, 5-fluorouracil]","caused loose stools/diarrhea, as well as associated weight loss; also recorded: caused loose stools/diarrhea, and associated weight loss",≤ 9,6,~20,7,~−20,≤ 12,5,245,43,statistically significant cumulative increase,14.93,,
B1,,,,,,,,,299,1,,0.33,significantly faster recovery,normal stool consistency
